Assay results published in patent publication US20180071280A1, “MODULATORS OF CELL DEATH PROCESSES” (URIFER LTD., priority 2015, published 2018).
pEC50: −log10 of the molar value. Where a name gives a salt, the structure may show the parent alone. Read-outs that look alike come from different tables or passages of the source.

What was measured:
SW620 CC cells = test: MultiTox-Fluor cytotoxicity assay in SW620 CC cells; format: cell-based, human; conditions: for cell death: 2 μM; for pEC50: Homo sapiens, SW-620, read-out: EC50 (cell death)
Protocol: (§1) Cell lines (HCT116, ht29, Rko, Hep3B, SW48, SW620, MDA-MB-231, PANC-1, su.86.86, Hfb) were obtained from the American Type Culture Collection (ATCC). Cell type authentication was carried out by microscope and DNA profiles using short tandem repeat analysis. Cells were grown in Minimum Essential Medium (MEM) containing 10% heat-inactivated Fetal Bovine Serum (FBS) or in Dulbecco's Modified Eagle's Medium (DMEM) containing 10% FBS, where specified, at 37° C. with 5% CO2. In general, the in-vitro experiments were carried out with 2. μM 0260 added into the growth medium. Dose response experiments included increasing 0260 concentrations. Cell death levels were determined using the MultiTox-Fluor Multiplex Cytotoxicity Assay (G9201, Promega, USA). In brief, 10,000 cells were seeded in black bottom 96 wells plate and were allowed to attach to the plate bottom for 16 h before the administration of various 0260 concentration in each well. Cell death levels were determined according to the manufacturer's protocol.
(§2) Cells death level was determined using the MultiTox-Fluor Multiplex Cytotoxicity Assay (G9201, Promega, USA) according to the manufacturer's protocol.

[1] = system: triple negative breast carcinoma MDA-MB-231 (MDA); test: MultiTox-Fluor cytotoxicity assay in MDA-MB-231 cells; format: cell-based, human; conditions: 24-72 h
Protocol: as §1, §2

[2] = system: pancreatic cancer cells (PANC-1); test: MultiTox-Fluor cytotoxicity assay in PANC-1 cells; format: cell-based, human; conditions: PANC-1, 24-72 h
Protocol: as §1, §2

SW620 CC xenografts = SW620 CC xenografts in nude mice; format: in vivo
Protocol: All animal experiments were performed according to the guidelines of the Institutional Animal Care and Use Committee of the Bar-Ilan University. Nude mice (Harlan, Israel) were transferred from ad libitum diet to a more strict diet 2 days before inoculation to lower blood glucose levels, and housed one per cage to ensure an even consumption of food. The diet was comprised of 3 g/mouse/day of standard chow, given at the same time every day. The food was consumed within an average time of 2 hours, consequently the mice were kept without food for the next 22 hours until the daily ration. The mice were kept on this diet throughout the experiment. Mice were inoculated with 1.5×10^6 SW620 CC cells and divided randomly into respective experimental groups. In brief, cells were harvested, counted under the microscope, concentrated by centrifugation (5 min at 500G) and re-suspended in Hank's balanced salt solution (Biological Industries, Israel). Before inoculation the cell suspension was mixed with Martial (BD biosciences, USA) in 1:1 ratio. Four days post-inoculation mice were randomized and placed in cages (n=4 per cage). […]
Mice were sacrificed at day 22 of the xenograft experiments, as described above. […] The serum was analyzed immediately using the Cobas 6000-501 chemistry analyzer (Roche Diagnostics, USA) according to the manufacturer's protocols for each assay.

[3] = system: Electron Transport Chain (ETC) complex I; test: ETC Complex I activity assay in SW620 cells; format: cell-based, human
Protocol: SW620 cells were treated with 0260 for 4-22 h and the Complex I activity was determined for each period on incubation using the Complex I Enzyme Activity Microplate Assay Kit (Colorimetric) according to the manufacturer's instructions (ab109721).

[4] = system: malignant cells (CC and MDA cells); test: Cellular ATP level (HPLC) in malignant cells; format: cell-based, human; conditions: CC cells, high glucose
Protocol: Quantification of intracellular ATP was carried out using HPLC as previously described.
Cells were suspended in 400 μl cold 0.4M perchloric acid solution, incubated on ice for 15 min, centrifuged at 12,000×g, neutralized with 4M K2CO3 to pH 7.5, incubated for 15 min on ice and concentrated (10,000×g). Chromatographic analyses were performed using Hitachi Elite LaChrom system at 30° C. applying supernatants to SUPELCOSIL™ LC-18-S HPLC Column (5 μm particle size, L×I.D. 25 cm×2.1 mm), flow rate 0.2 mL/min under isocratic elution conditions (50 mM potassium phosphate, 100 mM triethylamine, pH 6.5 (adjusted with phosphoric acid)):Acetonitrile (98.5:1.5)). Each analysis cycle was set to 30 min, chromatographic flow was monitored at 260 nm and integrated using EZChrom Elite Software.

Hfb cells = test: Glycolysis rate (secreted lactate) in Hfb cells; format: cell-based, human; conditions: low or high glucose
Protocol: Cells were grown in MEM containing 1 gr/lit glucose or in DMEM with 4.5 gr/lit glucose. Secreted lactate levels were determined using Lactate Colorimetric Assay Kit II according to the manufacturer's protocol (Biovision, USA).

[5] = Toxicological and histopathological studies in mice; format: in vivo
Protocol: All animal experiments were performed according to the guidelines of the Institutional Animal Care and Use Committee of the Bar-Ilan University. Nude mice (Harlan, Israel) were transferred from ad libitum diet to a more strict diet 2 days before inoculation to lower blood glucose levels, and housed one per cage to ensure an even consumption of food. The diet was comprised of 3 g/mouse/day of standard chow, given at the same time every day. The food was consumed within an average time of 2 hours, consequently the mice were kept without food for the next 22 hours until the daily ration. The mice were kept on this diet throughout the experiment. Mice were inoculated with 1.5×10^6 SW620 CC cells and divided randomly into respective experimental groups. In brief, cells were harvested, counted under the microscope, concentrated by centrifugation (5 min at 500G) and re-suspended in Hank's balanced salt solution (Biological Industries, Israel). Before inoculation the cell suspension was mixed with Martial (BD biosciences, USA) in 1:1 ratio. Four days post-inoculation mice were randomized and placed in cages (n=4 per cage). Mice were injected intra-peritonealy every 12 h for 22 days with 25 mg/kg or 50 mg/kg of the micellar and non-micellar 0260 formulations, and control mice—with empty micelles or vehicles. Mice were sacrificed at day 22, tissues from relevant organs were fixed in paraffin, sectioned (7 μm sections) and stained with Hematoxylin and Eosin stain (H&E stain) for future histopathological evaluation. Blood samples were drawn from sacrificed mice.
Mice were sacrificed at day 22 of the xenograft experiments, as described above. Tissues from relevant organs and tumors were fixed in paraffin, sectioned (7 μm sections) and stained with Hematoxylin and Eosin stain (H&E stain) for histopathological evaluation as previously described. Blood samples were drawn by cardiac puncture. […] The serum was analyzed immediately using the Cobas 6000-501 chemistry analyzer (Roche Diagnostics, USA) according to the manufacturer's protocols for each assay.

[6] = target: CSF1R (Colony stimulating factor 1 receptor-FMS) (Homo sapiens, UniProt P07333); test: Kinase panel assay, CSF1R; format: biochemical; conditions: above threshold
Protocol: Kinase panel assays were performed using the FRET-based Z′-LYTE, Lantha Screen and Adapta enzymatic kinase assay systems (Life Technologies, Carlsbad, Calif.), which were carried out using the SelectScreen Kinase Profiling Service (Life Technologies). The standard reaction contained 2 μM peptide substrate, ATP at the optimal assay concentration, 50 mM HEPES (pH 7.5), 0.01% Brij-35, 10 mM MgCl2, 1 mM EGTA, and the tested kinase. Each kinase was checked for its activity in duplicate data points (n=2) and was assayed following the detailed procedures outlined in the SelectScreen service. Percent inhibition or ATP displacement (For Lantha screen) represent a ratio of phosphorylated/ATP bound product formed in the presence of the compound compared with phosphorylated/ATP bound product formed in reactions containing 1% DMSO.
Kinome technique was used for monitoring phosphorylation events and phosphorylation targets of 0260-Fer interaction, using peptide arrays for human targets and phosphorylation-specific antibodies. Construction of peptide arrays relied on information from phosphorylation databases. The following proteins were determined as significant above the threshold of 40% kinase activity inhibition or ATP displacement to the Kinase domain site.

Chain of CSF1R (Colony stimulating factor 1 receptor-FMS) (P07333 20-972): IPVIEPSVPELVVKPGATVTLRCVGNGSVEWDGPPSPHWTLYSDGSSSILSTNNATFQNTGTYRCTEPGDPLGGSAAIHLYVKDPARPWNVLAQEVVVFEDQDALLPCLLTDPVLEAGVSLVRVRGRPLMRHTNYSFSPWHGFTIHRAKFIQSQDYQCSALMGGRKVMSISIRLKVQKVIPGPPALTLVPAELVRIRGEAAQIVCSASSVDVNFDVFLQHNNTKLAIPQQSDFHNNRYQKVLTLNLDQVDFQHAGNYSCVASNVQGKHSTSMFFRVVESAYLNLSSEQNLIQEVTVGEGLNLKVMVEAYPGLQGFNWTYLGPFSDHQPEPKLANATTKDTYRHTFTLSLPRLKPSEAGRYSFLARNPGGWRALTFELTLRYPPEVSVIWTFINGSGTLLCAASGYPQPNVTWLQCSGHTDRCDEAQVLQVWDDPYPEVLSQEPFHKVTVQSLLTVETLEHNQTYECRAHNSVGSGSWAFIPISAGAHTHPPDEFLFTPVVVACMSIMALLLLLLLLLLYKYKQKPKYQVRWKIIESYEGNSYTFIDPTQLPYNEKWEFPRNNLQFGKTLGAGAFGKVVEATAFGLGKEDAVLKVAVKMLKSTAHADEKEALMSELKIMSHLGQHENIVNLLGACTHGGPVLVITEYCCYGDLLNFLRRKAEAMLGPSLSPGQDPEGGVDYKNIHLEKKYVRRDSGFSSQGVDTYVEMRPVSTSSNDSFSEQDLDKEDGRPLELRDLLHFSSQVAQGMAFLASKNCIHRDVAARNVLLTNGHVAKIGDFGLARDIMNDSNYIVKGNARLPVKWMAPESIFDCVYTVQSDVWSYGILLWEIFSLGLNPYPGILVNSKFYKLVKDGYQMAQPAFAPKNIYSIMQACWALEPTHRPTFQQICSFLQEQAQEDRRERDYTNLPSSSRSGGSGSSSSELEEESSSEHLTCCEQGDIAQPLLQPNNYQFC

## CC(C)c1ccc(-c2cn3nc(N4CCC(CN5CCN(C)CC5)CC4)sc3n2)cc1 [compound 0260, tartarate salt of 6-(4-isopropyl-phenyl)-2-{4-[(4-methyl-piperazin-1-yl)methyl]piperidin-1-yl}-imidazo [2,1-b][1,3,4]thiadiazole]
SW620 CC cells; 24 h, metastatic CC (SW620), 1 gr/l glucose
  cell death: 100%
SW620 CC cells; 72 h, high glucose concentration
  cell death: 100%
SW620 CC cells; SW620, 4.5 gr/1 glucose (DMEM)
  pEC50: 5.29
  death at the highest dose: 50%
SW620 CC cells; SW620, 24 h, micellar formulation, 1 gr/l glucose (MEM)
  pEC50: 6.40
SW620 CC cells; SW620, 48 h, micellar formulation
  pEC50: 6.52
[1]
  concentration efficient in inducing cell death: ≤ 1.5 µM
[2]
  concentration efficient in inducing cell death: ≤ 1.5 µM
SW620 CC xenografts; SW620 derived tumors dissected at day 22, center and periphery
  tumor histopathology: comprised mostly of dead necrotic and un-vascularized tissue
SW620 CC xenografts; after 22 days of treatment, IP twice a day, restricted diet
  decrease in average tumor volume: 10 fold
[3]; SW620, 4 h post treatment
  Complex I activity: inhibited
[3]; SW620, 16 h
  Complex I activity (remaining): around 55%
[3]; SW620, 22 hours
  Complex I activity (remaining): ~35%
[4]
  effect on ATP levels under high glucose medium: reducing its effect on ATP levels
Hfb cells
  elevation in the glycolytic rate: not observed
[5]; daily injection
  toxic effects (blood markers of liver and kidney functions, blood electrolytes): did not cause any toxic effects or adverse side effects
[5]; mouse, in vivo
  histopathology of heart, kidneys and liver: failed to detect any abnormalities related to toxicity
[5]; xenograft experiments
  effect on animal's weight: no significant effect
[6]
  kinase activity inhibition or ATP displacement: > 40%
